The kcat is the number of substrate molecules converted per active site and unit of time at saturation.

Like-named read-outs stand apart in the source and are kept apart here.

We go through 1 compound from patent US20050143472A1, “Novel treatment for pathologies associated with oxidative damage” (priority 2002, published 2005).

For assay [1], the target named is T1, mPAO (Mus musculus, UniProt Q8C0L6).
T1 construct: the full length cDNA of mpao was released by Nde I and Hind III treatment, and ligated into Nde I and Hind III sites of pET29c; made in house; host or cells: E. coli BL21 GOLD (DE3), plasmid pET-MPAO (pET29c)
In words: Oxygraph assay of O2 consumption, progress-curve analysis. Type of assay: biochemical, murine. The method, then: Some assays (oxygraph assays) were carried out by directly monitoring O2 consumption in air-saturated buffer ([O2]=0.237 mM) or buffer saturated with pure O2 at 30° C. ([O2]=1.12 mM). The depletion of O2 was detected with a Yellow Springs Instruments, Inc. Model 53 Oxygen Monitor equipped with a Clark electrode. […] Following a published procedure (Goudar et al., Biochim. Biophys. Acta 1429:377-383 [1999]), the data were fitted to the integrated Mechaelis-Menton equation. The analyses were done using Maple VI (Windows 2000) software (Waterloo Maple, Inc.) running on a PC computer. […] Inhibition by the H2O2, formed as a product of polyamine oxidation by mPAO, was assessed by addition of 2 μL of a 30 mg/mL (30,000 units/mg) solution of catalase, after [O2] reached zero.
The catalase immediately converted each mole of H2O2 to 0.5 mol of O2 (since [O2]=1.12 mM for pure O2-saturated buffer, then [O2]=0.56 mM immediately after catalase addition). In the presence of catalase, O2 depletion should occur at 0.5× the rate as it does in the absence of catalase (unless H2O2 inhibition is operating). With catalase present, each molecule of O2 will be converted eventually to H2O (4-electron equivalents), rather than to H2O2 (2-electron equivalents).

In assay [2] the test system is HL-60 human promyelogenous leukemia cells. The text has this: (§1) In this Example, the method used to examine hpao mRNA production by cultured cells undergoing apoptosis is described.
Assay [3] relates to OVCAR-3 human ovarian carcinoma cells. The settings on record: approximately 50 μM, within 20 hrs.
Description: as §1

The target in assay [4] is T1, mPAO. In words: Steady-state kinetic spectrophotometric assay of mPAO (H2O2 formation). The assay is classed as biochemical, murine. The method, then: In this example the methods used to examine mPAO steady state kinetics are described. Spectrophotometric assays were done at 30° C. in a potassium phosphate buffer (e.g., 50 mM KH2PO4/KOH buffer, pH 7.6 saturated in air or in pure oxygen), using a published procedure which provides a continuous monitor of the H2O2 produced (Holt et al., Anal. Biochem. 244:384-392 [1997]). These assays were done in 1 mL cuvette with 0.8 mL of solution containing varying amounts of substrate, 1 mM vanillic acid, 0.5 mM 4-aminopyrine, 4 units of horseradish peroxidase, and 0.1-0.2 μg of mPAO. The reactions were monitored at 498 nm with a UVIKON 840 spectrophotometer (KONTRON Instruments) for the formation of the quinoneimine dye (ε498=4,650 M^−1cm^−1 at pH 7.6), the condensation product of vanillic acid and oxidized 4-aminopyrine. The latter is produced from 4-aminopyrine by the action of horseradish peroxidase that has been oxidized by H2O2 (Holt et al., supra [1997]). The assays were done at 25° C. by varying the concentration of the amine substrate, while the oxygen concentration in the assay solution was constant at the air-saturating level of 237 μM. The data were fit, by nonlinear regression to steady-state kinetic equations (McIntire et al., Biochem. J. 228:325-335 [1985]), which provided the values, and standard deviations thereof, for kcat′, KS′ and kcat′/KS′ (=Q, the specificity constant). [formula]
The dissociation constants, KD, for these and other amines were estimated in the following manner. It was assumed that the competition was competitive, since in the presence of the inhibitors, at a saturating N^1-acetyl-Spm concentration, the rate of the reaction was equal to the value of the true kcat. It was also assumed that the mechanism is of the ping-pong type. Thus, the applicable steady-state equation is (Segal, Enzyme Kinetics, John Wiley & Sons, New York, pp. 606-625 [1975]): [formula]
On the left, kcat and KS are the steady-state parameters for N^1-acetyl-Spm (S), and I and KI (=KD), represent the inhibitor and its inhibition constant, respectively. KIO and KO are the inhibition constant and Michaelis constant for O2, respectively. The equation can be converted to the expression on the right side when: [formula]
The expressions for kcat′ and KS′ (at the fixed [O2]=[…]) are the same as those when the inhibitor is absent. Since the values of kcat′ and KS″ were predetermined, inhibition assays were carried out where [S]≈KS″, which, in the absence of I, would give a rate, ν≈0.5×kcat″. In these assay, for each inhibitor, [I] was adjusted so the apparent rate was somewhat less then 0.5 kcat′. In this situation, after substitution and rearrangement, Equation 1 reduces to: [formula]
Since [I] and kcat′ are known, and ν is the measured rate in the presence of the inhibitor, the value of KI′ can be estimated. It is assumed that these apparent KI′ are good approximations of the true KI (=KD) values. […] The estimated KI′ values provided in Table 1, are the averages of these four values. If the reactions of the polyamine substrates and O2 with mPAO obeys a ping-pong type mechanism, the apparent values, kcat′/KS′, are equal to the true kcat/KS values.

T1 sequence (Q8C0L6 whole entry E184K/L285S/R416L/R417S/Q419R/E451A/V490I/S491G/V497A): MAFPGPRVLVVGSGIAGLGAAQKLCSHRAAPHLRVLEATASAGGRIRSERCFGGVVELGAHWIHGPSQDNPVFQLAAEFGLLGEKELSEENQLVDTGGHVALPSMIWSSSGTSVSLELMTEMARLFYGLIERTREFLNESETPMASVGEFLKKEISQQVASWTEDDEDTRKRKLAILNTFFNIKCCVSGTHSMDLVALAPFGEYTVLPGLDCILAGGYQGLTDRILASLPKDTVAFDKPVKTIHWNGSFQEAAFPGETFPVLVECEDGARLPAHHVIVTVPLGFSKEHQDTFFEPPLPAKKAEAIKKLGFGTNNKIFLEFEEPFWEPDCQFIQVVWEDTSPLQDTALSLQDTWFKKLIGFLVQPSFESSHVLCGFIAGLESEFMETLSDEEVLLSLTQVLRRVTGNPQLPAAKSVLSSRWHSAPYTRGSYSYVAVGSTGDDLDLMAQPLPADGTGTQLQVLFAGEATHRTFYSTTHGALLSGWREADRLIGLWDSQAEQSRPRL

As to `CC(=O)NCCCNCCCCNCCCN` [N^1-acetyl-Spm, N^1-acetyl-spermine], the KQ on mPAO [1] (Michaelis constant for O2, saturating amine substrate) is 180 ± 20 µM. The kcat/KQ result at mPAO [1] (for O2, saturating amine substrate, pure O2-saturated buffer) is recorded as “(4.4 ± 0.4) × 10^4 M^−1sec−^1”. For the same compound, the “KS(calc)” value at mPAO [1] (true KS calculated from apparent KS′ with KS = KS′(1 + KO/[O2])) was 3.1 ± 0.3 µM. Besides, at mPAO [1] (true value, saturating substrate (3.7 mM), buffer saturated with pure O2 (1.12 mM)), the kcat was found to be 8.0 ± 0.8 s⁻¹. In assay [2] (24 hrs, all tested concentrations), the HL-60 cell survival entry is listed as “survived for 24 hrs”. Further, the HL-60 cells survived in assay [2] (72 hrs exposure, 0.05 mM) is 100%. Moreover, the HL-60 cells killed in assay [2] (72 hrs exposure, 0.1 mM) is listed as 30%; in assay [2] (72 hrs exposure, 0.2 mM), 50%; in assay [2] (72 hrs exposure, 0.5 mM), 80%. Also, the OVCAR-3 cells killed in assay [3] is 100%. In addition, the “kcat′” value at mPAO [4] (apparent value, air-saturated 50 mM KH2PO4/KOH buffer pH 7.6, [O2] 237 μM) was determined as 4.53 ± 0.05 s⁻¹. Also, the “KS′” value at mPAO [4] (apparent value, air-saturated buffer pH 7.6, [O2] 237 μM) came to 1.78 ± 0.1 µM. The “substrate for mPAO (oxidation by mPAO)” value on mPAO [4] (in words) is reported as “good mPAO substrates”. For the same compound, the “kcat′/KS′” value at mPAO [4] (specificity constant, air-saturated buffer pH 7.6) is on record as “(2.54 ± 0.01) × 10^6 M^−1sec^−1”.
